Values quoted from earlier work in patent US20250114351A1, “5-HT2C RECEPTOR MODULATING AGENTS FOR THE TREATMENT OF NEURODEGENERATIVE, MENTAL, COGNITIVE AND AUTOIMMUNE CNS DISORDERS” (priority 2022, published 2025).

Columns and labels:
5-HT2C = target: T1, 5-HT2C (Homo sapiens, UniProt P28335)
T1 sequence (P28335 33-458): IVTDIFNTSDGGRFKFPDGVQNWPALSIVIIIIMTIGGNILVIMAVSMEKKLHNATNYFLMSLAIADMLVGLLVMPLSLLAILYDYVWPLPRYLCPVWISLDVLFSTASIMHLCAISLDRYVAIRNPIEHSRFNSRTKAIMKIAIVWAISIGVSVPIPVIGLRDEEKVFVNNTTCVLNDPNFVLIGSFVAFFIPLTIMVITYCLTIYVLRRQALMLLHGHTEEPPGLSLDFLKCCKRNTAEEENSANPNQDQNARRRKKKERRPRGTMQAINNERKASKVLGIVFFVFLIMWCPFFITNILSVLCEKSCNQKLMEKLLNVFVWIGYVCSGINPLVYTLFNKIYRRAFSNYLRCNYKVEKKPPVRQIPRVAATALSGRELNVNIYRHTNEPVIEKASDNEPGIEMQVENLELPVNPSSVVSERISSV

5-HT2A = 5-HT2A (Homo sapiens, UniProt P28223)
5-HT2A, sequence (P28223 whole entry, species assumed): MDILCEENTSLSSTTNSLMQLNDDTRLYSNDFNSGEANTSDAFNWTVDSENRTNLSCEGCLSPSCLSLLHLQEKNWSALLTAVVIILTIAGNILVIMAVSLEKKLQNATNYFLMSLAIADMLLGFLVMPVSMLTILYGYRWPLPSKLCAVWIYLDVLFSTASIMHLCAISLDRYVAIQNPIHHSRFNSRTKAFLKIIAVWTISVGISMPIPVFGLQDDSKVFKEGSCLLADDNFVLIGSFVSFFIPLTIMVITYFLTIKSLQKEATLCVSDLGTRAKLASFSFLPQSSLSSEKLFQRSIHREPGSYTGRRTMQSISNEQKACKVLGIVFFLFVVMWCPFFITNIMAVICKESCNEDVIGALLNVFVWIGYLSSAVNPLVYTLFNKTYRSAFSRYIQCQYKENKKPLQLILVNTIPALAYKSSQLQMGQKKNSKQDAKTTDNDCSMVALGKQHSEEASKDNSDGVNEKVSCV

5-HT2B = 5-HT2B (Homo sapiens, UniProt P41595)
5-HT2B, sequence (P41595 whole entry, species assumed): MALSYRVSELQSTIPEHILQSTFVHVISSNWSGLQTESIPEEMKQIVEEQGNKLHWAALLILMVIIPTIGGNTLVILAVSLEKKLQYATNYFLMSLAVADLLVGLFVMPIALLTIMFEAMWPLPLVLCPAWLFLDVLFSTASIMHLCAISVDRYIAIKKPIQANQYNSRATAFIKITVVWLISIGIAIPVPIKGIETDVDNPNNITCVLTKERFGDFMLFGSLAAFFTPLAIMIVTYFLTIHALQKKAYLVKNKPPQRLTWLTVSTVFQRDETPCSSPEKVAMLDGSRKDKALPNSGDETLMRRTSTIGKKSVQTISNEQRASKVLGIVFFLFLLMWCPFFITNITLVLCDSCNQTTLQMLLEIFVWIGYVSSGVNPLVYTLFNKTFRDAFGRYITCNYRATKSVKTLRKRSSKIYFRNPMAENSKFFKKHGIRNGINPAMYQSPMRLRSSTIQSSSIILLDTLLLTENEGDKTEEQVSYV

| Structure (SMILES) | 5-HT2C Emax (5-HT2C) | 5-HT2A Emax (5-HT2A) | 5-HT2B Emax (5-HT2B) | EC50 (5-HT2A) | EC50 (5-HT2B) |
| --- | --- | --- | --- | --- | --- |
| C[C@H]1CNCCc2ccc(Cl)cc21 [Lorcaserin, (1R)-8-chloro-2,3,4,5-tetrahydro-1-methyl-1H-3-benzazepine] | 100% | 75% | – | – | – |
| C[C@H](N)Cn1ccc2cc(F)c(Cl)cc21 [RO 60-01752, (S)-2-(6-chloro-5-fluoroindol-1-yl)-1-methylethylamine] | 88 ± 20% | 91 ± 5% | 130 ± 30% | – | – |
| Clc1cccc(COc2cncc(N3CCNCC3)n2)c1 [CP-809101, 2-(3-Chlorobenzyloxy)-6-(piperazin-1-yl)pyrazine] | – | 67% | – | 0.153 µM | – |
| c1cc2c3c(c1)[C@H]1CCC[C@H]1CN3CCNC2 [Vabicaserin] | – | – | – | 1.65 µM | – |
| c1cc2c3c(c1)[C@H]1CCC[C@H]1N3CCNC2 [WAY-163909, (7bR,10aR)-1,2,3,4,8,9,10,10a-octahydro-7bH-cyclopenta-[b][1,4]diazepino[6,7,1hi]indole] | – | – | – | – | 0.185 ± 0.105 µM |
